Experiments:
[1] = tested on: metastatic urothelial carcinoma (mUC); assay: IMvigor210 study of atezolizumab in metastatic urothelial carcinoma, efficacy by tTMB; format: in vivo, human
Method: To evaluate this idea, the association between tTMB and response to atezolizumab was evaluated in several distinct cancer types. As described in Example 2, high tTMB was associated with response to atezolizumab in 1 L and 2 L+ NSCLC, including at tTMB cutoffs of ≥16 mut/Mb and ≥20 mut/Mb. […] Tissue TMB was associated with improved ORR in 1 L and 2 L mUC patients at the ≥16 mut/Mb and ≥20 mut/Mb cutoffs in the IMvigor210 study (FIG. 17).

[2] = tested on: locally advanced or metastatic NSCLC (PD-L1-selected patients); assay: BIRCH and FIR Phase II single-arm trials of atezolizumab monotherapy in PD-L1-selected NSCLC, efficacy by tTMB; format: in vivo, human; details: for Median OS / Median PFS: 1L BIRCH/FIR; for ORR / Odds Ratio for Response / OS HR (95% CI) / PFS HR (95% CI): BIRCH and FIR 2L+; for Odds Ratio for Response / OS HR (95% CI) / PFS HR (95% CI): TMB-high vs TMB-low; for OS HR (95% CI) / PFS HR (95% CI): unadjusted, unstratified
Method: The correlation between the level of somatic mutations detected in a tumor tissue sample (e.g., mutation load, also referred to as tissue tumor mutational burden (tTMB)) and PD-L1 expression and their independent contribution to treatment with PD-L1 axis binding antagonists in non-small cell lung cancer (NSCLC) tumors was evaluated.
Pre-treatment tumor specimens from 465 patients with 2 L+ NSCLC who were enrolled in one of the three Phase II clinical trials (BIRCH, FIR, and POPLAR; Table 4 and 5), in which atezolizumab was administered as a monotherapy, were evaluated for tissue tumor mutational burden (tTMB). Tumor specimens from 1 L NSCLC patients were also evaluated in the BIRCH and FIR studies.
The efficacy analyses of the BIRCH population excluded these two untreated patients. Patients were eligible for enrollment in the BIRCH study if they had locally advanced or metastatic (e.g., stage IIIB, stage IV, or recurrent) NSCLC; a PD-L1-positive tumor status determined by an immunohistochemistry (IHC) assay based on PD-L1 expression in tumor infiltrating immune cells (IC) and/or tumor cells (TC); measurable disease, as defined by RECIST v1.1; and an Eastern Cooperative Oncology Group (ECOG) performance status of 0 or 1. Patients received atezolizumab at a dose of 1200 mg intravenously every three weeks for as long as patients were experiencing clinical benefit, i.e., in the absence of unacceptable toxicity or symptomatic deterioration attributed to disease progression.
The FIR (Clinical Trial ID No.: NCT01846416) patient population evaluated for tTMB consisted of 33 patients. Patients were eligible for enrollment in the FIR study if they had stage IIIB (e.g., not eligible for treatment by definitive chemoradiotherapy), stage IV, or recurrent NSCLC; a PD-L1-positive status as determined by an IHC assay; an ECOG performance status of 0 or 1; a life expectancy 12 weeks; measurable disease, as defined by RECIST v1.1; and adequate hematologic and end organ function. Patients received an intravenous dose of 1200 mg atezolizumab on Day 1 of each 21-day cycle until disease progression.
Data from the single-arm, PD-L1-selected trials BIRCH and FIR were combined and analyzed to examine the association between tTMB and clinical outcomes among PD-L1-selected patients. Data from the randomized, PD-L1-unselected trial, POPLAR, were analyzed separately and treatment effects between the atezolizumab- and docetaxel-treatment arms were compared.
To identify somatic mutations, tumor samples (e.g., archival tumor samples) were processed as described in Frampton et al. Nat. Biotechnol. 31:1023-31, 2013. Sequencing libraries were constructed to sequence and analyze samples. In addition to standard mutation processing, a mutation load estimation algorithm was applied that, based on the number of somatic mutations and/or rearrangements detected in Table 1 or Table 2, respectively, extrapolates to the exome or the genome as a whole. For purposes of mutation load estimation, all coding short variant alterations, base substitutions, and indels detected in the genes listed in Table 1 and Table 2 were counted. Further, all coding alterations (base substitutions and indels), including synonymous alterations, with the exception of known oncogenic driver mutations, in the genes listed in Table 1 and Table 2 were counted. […]

[3] = BEP (evaluable for TMB) (n = 102)

## atezolizumab
[1]; 1L cisplatin-ineligible mUC, cohort 1 of IMvigor210
  association of increased tTMB with ORR, PFS and OS: associated with increased ORR (FIG. 15A), longer PFS (FIG. 15B), and longer OS (FIG. 15C)
[1]; 2L+ mUC, cohort 2 of IMvigor210
  association of increased tTMB with ORR, PFS and OS: associated with increased ORR (FIG. 16A), longer PFS (FIG. 16B), and longer OS (FIG. 16C)
[1]; IMvigor210 1L cisplatin-ineligible and 2L+ mUC, 6 patients both TMB-high (≥16 mut/Mb) and MSI-high
  ORR: 83%
[2]; [3]
  Median OS: 20.1 months
  Median PFS: 7.0 months
[2]; ITT (n = 173)
  Median OS: 20.1 months
  Median PFS: 6.9 months
[2]; tTMB score <9 mut/Mb (n = 45)
  Median PFS: 4 months
[2]; tTMB score <16 mut/Mb (n = 85)
  Median OS: 20.1 months
  Median PFS: 6 months
[2]; tTMB score ≥9 mut/Mb (n = 57)
  Median OS: 20.1 months
  Median PFS: 8.3 months
[2]; tTMB score ≥16 mut/Mb (n = 17)
  Median PFS: 11.1 months
[2]; TMB-high (at or above 25% tTMB quantile cutoff)
  ORR: 22%
[2]; TMB-high (at or above 50% (median) tTMB cutoff)
  ORR: 25%
[2]; TMB-high (at or above 75% tTMB quantile cutoff)
  ORR: 29%
[2]; 25% tTMB cutoff
  Odds Ratio for Response: 2.14
  OS HR (95% CI): 0.92 (0.64, 1.30)
  PFS HR (95% CI): 0.79 (0.60, 1.00)
[2]; 50% (median) tTMB cutoff
  Odds Ratio for Response: 2.11
  OS HR (95% CI): 0.87 (0.65, 1.16)
  PFS HR (95% CI): 0.64 (0.50, 0.80)
[2]; 75% tTMB cutoff
  Odds Ratio for Response: 2.20
  OS HR (95% CI): 0.70 (0.49, 1.00)
  PFS HR (95% CI): 0.5 (0.38, 0.67)
[2]; TMB-low (below 25% tTMB quantile cutoff)
  ORR: 11%
[2]; TMB-low (below 50% (median) tTMB cutoff)
  ORR: 14%
[2]; TMB-low (below 75% tTMB quantile cutoff)
  ORR: 16%
[2]; PD-L1-selected 2L+ patients with NSCLC, BIRCH and FIR
  association of tissue TMB with efficacy: associated with improved efficacy
[2]; all lines evaluated (1L and 2L+) in FIR and BIRCH
  association of tTMB with efficacy: associated with improved efficacy
